Measured values reported in patent publication US8674109B2, “Pesticidal compositions” (Dow AgroSciences, LLC., priority 2009, dated 2014).

Columns and labels:
Format in all cases: in vivo
[1] = tested on: beet armyworm (BAW; Spodoptera exigua: Lepidoptera); experiment: Insecticidal test for beet armyworm, 128-well diet tray assay
Procedure: Insecticidal Test for Beet Armyworm (Spodoptera exigua)
(§1) Bioassays on beet armyworm (BAW; Spodoptera exigua: Lepidoptera) were conducted using a 128-well diet tray assay. Three to five second instar BAW larvae were placed in each well (3 mL) of the diet tray that had been previously filled with 1 mL of artificial diet to which 50 μg/cm^2 of the test compound (dissolved in 50 μL of 90:10 acetone-water mixture) had been applied (to each of eight wells) and then allowed to dry. Trays were covered with a clear self-adhesive cover, and held at 25° C., 14:10 light-dark for six days. Percent mortality was recorded for the larvae in each well; activity in the eight wells was then averaged.

[2] = tested on: corn earworm (CEW; Helicoverpa zea: Lepidoptera); experiment: Insecticidal test for corn earworm, 128-well diet tray assay
Procedure: Insecticidal Test for Corn Earworm (Helicoverpa zea)
as §1, with “corn earworm (CEW; Helicoverpa zea:” for “beet armyworm (BAW; Spodoptera exigua:”, “CEW” for “BAW”

[3] = tested on: green peach aphid (Myzus persicae); experiment: Insecticidal test for green peach aphid in foliar spray assay on cabbage seedlings
Procedure: Insecticidal Test for Green Peach Aphid (Myzus persicae) in Foliar Spray Assay
Cabbage seedlings grown in 3-inch pots, with 2-3 small (3-5 cm) true leaves, were used as test substrate. The seedlings were infested with 20-50 green peach aphids (wingless adult and nymph) one day prior to chemical application. Four pots with individual seedlings were used for each treatment. Compounds (2 mg) were dissolved in 2 mL of acetone/methanol (1:1) solvent, forming stock solutions of 1000 ppm. The stock solutions were diluted 5× with 0.025% Tween 20 in H2O to obtain the solution at 200 ppm. A hand-held Devilbiss sprayer was used for spraying a solution to both sides of cabbage leaves until runoff. Reference plants (solvent check) were sprayed with the diluent only. Treated plants were held in a holding room for three days at approximately 25° C. and 40% relative humidity (RH) prior to grading. Evaluation was conducted by counting the number of live aphids per plant under a microscope. Insecticidal activity was measured by using Abbott's correction formula are presented in Table 2: Corrected % Control=100*(X−Y)/X
where • X=No. of live aphids on solvent check plants • Y=No. of live aphids on treated plants

Row | Compound | % Mortality BAW 50 μg/cm^2 [1] | % Mortality CEW 50 μg/cm^2 [2] | % Mortality GPA 200 ppm [3]
1 | CC(OC(=O)Nc1ccc(-c2ncn(-c3ccc(OC(F)(F)F)cc3)n2)cc1)c1ccc(C(F)(F)F)[n+]([O-])c1 (stereo not drawn) [Compound 51] | A (50-100) | A (50-100) | B (Less than 80)
2 | CCN(C(=O)OC(C)c1ccc(C(F)(F)F)nc1)c1ccc(-c2ncn(-c3ccc(OC(F)(F)F)cc3)n2)cc1 (stereo not drawn) [Compound 130, 1-(6-(trifluoromethyl)pyridin-3-yl)ethyl ethyl(4-(1-(4-(trifluoromethoxy)phenyl)-1H-1,2,4-triazol-3-yl)phenyl)carbamate] | A (50-100) | A (50-100) | B (Less than 80)
3 | CCOC(=O)c1csc(C(=O)C(C)(C)OC(=O)Nc2ccc(-c3ncn(-c4ccc(OC(F)(F)F)cc4)n3)cc2)n1 [Compound 7] | B (Less than 50) | B (Less than 50) | B (Less than 80)
4 | CO[C@@H]1O[C@@H](C)[C@H](OC)[C@@H](OC(=O)Nc2ccc(-c3ncn(-c4ccc(OC(F)(F)F)cc4)n3)cc2)[C@H]1OC [Compound 2] | A (50-100) | B (Less than 50) | B (Less than 80)
5 | CC(C)OC(=O)Nc1ccc(-c2ncn(-c3ccc(OC(F)(F)F)cc3)n2)cc1 [Compound 87] | A (50-100) | B (Less than 50) | B (Less than 80)
6 | Cc1noc(C)c1C(C)OC(=O)Nc1ccc(-c2ncn(-c3ccc(OC(F)(F)F)cc3)n2)cc1 (stereo not drawn) [Compound 86] | A (50-100) | A (50-100) | B (Less than 80)
7 | C=CC(C)(C)OC(=O)Nc1ccc(-c2ncn(-c3ccc(OC(F)(F)F)cc3)n2)cc1 [Compound 19] | A (50-100) | A (50-100) | B (Less than 80)
8 | COc1ccc(C(C)OC(=O)Nc2ccc(-c3ncn(-c4ccc(OC(F)(F)F)cc4)n3)cc2)cn1 (stereo not drawn) [Compound 55] | A (50-100) | A (50-100) | B (Less than 80)
9 | COC(=O)Nc1ccc(-c2ncn(-c3ccc(OC(F)(F)C(F)(F)F)cc3)n2)cc1 [Compound 135, methyl 4-(1-(4-(perfluoroethoxy)phenyl)-1H-1,2,4-triazol-3-yl)phenylcarbamate] | A (50-100) | A (50-100) | B (Less than 80)
10 | CC(OC(=O)Nc1ccc(-c2ncn(-c3ccc(OC(F)(F)F)cc3)n2)cc1)c1ccc(-c2ccccc2)cc1 (stereo not drawn) [Compound 116] | B (Less than 50) | A (50-100) | B (Less than 80)
11 | Fc1ccc(OC(=S)Nc2ccc(-c3ncn(-c4ccc(OC(F)(F)F)cc4)n3)cc2)cc1 [Compound 134, O-4-fluorophenyl 4-(1-(4-(trifluoromethoxy)phenyl)-1H-1,2,4-triazol-3-yl)phenylcarbamothioate] | B (Less than 50) | B (Less than 50) | B (Less than 80)
12 | COc1ccc(CC(C)OC(=O)Nc2ccc(-c3ncn(-c4ccc(OC(F)(F)F)cc4)n3)cc2)cc1 (stereo not drawn) [Compound 22] | A (50-100) | A (50-100) | B (Less than 80)
13 | COCC(OC(=O)Nc1ccc(-c2ncn(-c3ccc(OC(F)(F)F)cc3)n2)cc1)c1ccccc1 (stereo not drawn) [Compound 58] | A (50-100) | A (50-100) | B (Less than 80)
14 | Cc1ccc(C(C)OC(=O)Nc2ccc(-c3ncn(-c4ccc(OC(F)(F)F)cc4)n3)cc2)cn1 (stereo not drawn) [Compound 47] | A (50-100) | A (50-100) | B (Less than 80)
15 | CCCCC(C)OC(=O)Nc1ccc(-c2ncn(-c3ccc(OC(F)(F)F)cc3)n2)cc1 (stereo not drawn) [Compound 9, {4-[1-(4-trifluoromethoxyphenyl)-1H-[1,2,4]triazol-3-yl]-phenyl}-carbamic acid 1-methyl-pentyl ester] | A (50-100) | A (50-100) | B (Less than 80)
16 | O=C(Nc1ccc(-c2ncn(-c3ccc(OC(F)(F)F)cc3)n2)cc1)Oc1cccc(-c2ccccc2)c1 [Compound 129] | A (50-100) | A (50-100) | B (Less than 80)
17 | O=C(Nc1ccc(-c2ncn(-c3ccc(OC(F)(F)F)cc3)n2)cc1)OC1Cc2ccccc2C1 [Compound 106] | B (Less than 50) | A (50-100) | B (Less than 80)
18 | CC(C)(OC(=O)Nc1ccc(-c2ncn(-c3ccc(OC(F)(F)F)cc3)n2)cc1)C(F)(F)F [Compound 8] | A (50-100) | A (50-100) | B (Less than 80)
19 | CC(OC(=O)Nc1ccc(-c2ncn(-c3ccc(OC(F)(F)F)cc3)n2)cc1)C(F)(F)C(F)(F)F (stereo not drawn) [Compound 24, {4-[1-(4-trifluoromethoxyphenyl)-1H-[1,2,4]triazol-3-yl]phenyl}-carbamic acid 2,2,3,3,3-pentafluoro-1-methyl-propyl ester] | A (50-100) | A (50-100) | B (Less than 80)
20 | CC(OC(=O)Nc1ccc(-c2ncn(-c3ccc(OC(F)(F)F)cc3)n2)cc1)c1ccc(C#N)cc1 (stereo not drawn) [Compound 45] | A (50-100) | A (50-100) | B (Less than 80)
21 | O=C(Nc1ccc(-c2ncn(-c3ccc(OC(F)(F)F)cc3)n2)cc1)OC(c1ccccc1)C1CC1 (stereo not drawn) [Compound 88] | A (50-100) | A (50-100) | B (Less than 80)
22 | O=C(Nc1ccc(-c2ncn(-c3ccc(OC(F)(F)F)cc3)n2)cc1)Oc1ccccc1 [Compound 122] | A (50-100) | A (50-100) | B (Less than 80)
23 | CCC(OC(=O)Nc1ccc(-c2ncn(-c3ccc(OC(F)(F)F)cc3)n2)cc1)c1ccccc1 (stereo not drawn) [Compound 85] | A (50-100) | A (50-100) | B (Less than 80)
24 | CCOC(=O)C#CC(C)(C)OC(=O)Nc1ccc(-c2ncn(-c3ccc(OC(F)(F)F)cc3)n2)cc1 [Compound 23, 4-methyl-4-{4-[1-(4-trifluoromethoxyphenyl)-1H-[1,2,4]triazol-3-yl]-phenylcarbamoyloxy}-pent-2-ynoic acid ethyl ester] | B (Less than 50) | B (Less than 50) | B (Less than 80)
25 | CC(OC(=O)Nc1ccc(-c2ncn(-c3ccc(OC(F)(F)F)cc3)n2)cc1)C1CC1 (stereo not drawn) [Compound 15, 4 {4-[1-(4-trifluoromethoxyphenyl)-1H-[1,2,4]triazol-3-yl]-phenyl}-carbamic acid 1-cyclopropyl-ethyl ester] | A (50-100) | A (50-100) | B (Less than 80)
